Experiments:
[1] = tested on: hemoglobin, ferritin, TSAT, hepcidin; assay: Example 3 trial: erythropoiesis and iron parameters; format: in vivo, human; parameters: Mean increase in ferritin from baseline to highest value: unit not given here; conditions: for Mean increase in hepcidin from baseline to highest value / effect of a single dose on hemoglobin and iron indices / proportion of group in which hemoglobin increased by 2.0 g/dL: in vivo; for Hemoglobin increase ≧2.0 g/dL, n (%): intention-to-treat in safety population, anytime to day 35; for Mean increase in ferritin from baseline to highest value / Mean increase in hemoglobin from baseline to highest value / Mean increase in transferrin saturation from baseline to highest value: mean ± standard error; for effect on TSAT and serum hepcidin levels: p≦0.001; for serum hepcidin levels by day 7: remained significantly elevated on day 35
Protocol: Study visits were on Days 0 (when iron was infused), 1 (24 hours after iron infusion), 7, 14, and 35. The primary objectives were to determine the effect of iron deficiency on cFGF23 and iFGF23 levels and the effect of intravenous iron on iFGF23 and cFGF23 levels.
Randomization occurred centrally via a fax-based system. […] The complete dose was infused over 15 minutes on day 0. […] An initial test dose of 25 mg was administered slowly over 5 minutes.
Laboratory testing of blood and three-hour urine collections was performed at the screening visit and on study days 0 (when iron was infused), 1 (24 hours after iron infusion), 7, 14, and 35 (see e.g., FIG. 2A). Any subject who experienced a reduction in serum phosphate below the normal range after day 0 underwent additional phosphate measurements at 14 day intervals following day 35 until the level returned to the normal reference range. Safety evaluations of all subjects included ascertainment of adverse events, physical examinations at all study visits, and laboratory assessments. Any subject who withdrew from the study received a follow-up phone call to ascertain adverse events 30 days after they received study drug.
The pre-specified primary endpoints were changes in blood and urine markers of phosphate and bone metabolism among the evaluable population, defined as those subjects with baseline and at least one post-randomization set of FGF23 and blood and urinary phosphate levels. Secondary endpoints included the proportion of subjects achieving a hemoglobin increase […] anytime between baseline and day 35, and the change from baseline to highest hemoglobin, ferritin, and TSAT anytime during the 35-day study period. Additional safety endpoints included incidence, severity, and seriousness of adverse events, and incidence of treatment-emergent abnormal clinical laboratory values in the safety population, defined as all subjects who received the study drug regardless of subsequent laboratory testing.
Blood and urine samples were sent to a central laboratory for analysis (Covance Central Laboratory Service, Indianapolis, Ind.). Hemoglobin, blood counts, iron indices, electrolytes, and serum and urinary phosphate and creatinine were measured with standard, automated, multi-analyte techniques. Urinary fractional excretion of phosphate (FEPi) was calculated from the three-hour, morning urine collections as urinary phosphate x serum creatinine/serum phosphate x urinary creatinine. Serum levels of 25-hydroxyvitamin D and 1,25-dihydroxyvitamin D were measured in duplicate by radioimmunoassay (DiaSorin, Stillwater, Minn.) with intra-assay coefficients of variation (CV)<11.6%. Plasma C-terminal FGF23 (cFGF23) was measured in duplicate in EDTA-plasma samples using a human FGF23 immunometric assay capable of detecting both the intact peptide and its C-terminal fragments (Immutopics, San Clemente, Ca) with intra-assay CV≦3.8%. Because cFGF23 testing was performed in parallel with rolling enrollment and follow-up, all cFGF23 assay plates tested combinations of baseline and post-intervention samples from multiple study participants. Serum intact FGF23 (iFGF23) was measured in batches of baseline and post-intervention samples from multiple study participants at study end using an immunometric assay that detects the intact peptide exclusively (Kyowa Medex Company, Shizuoka, Japan) with intra-assay CV<2.7%. Serum hepcidin levels were measured on days 0, 7, and 35 using an enzyme-linked immunosorbent assay (Intrinsic LifeSciences, La Jolla, Calif.) with intra-assay CV≦19%. Urinary amino acids, glucose, albumin, and beta 2 microglobulin were measured to test for the possibility of global proximal tubular dysfunction. Urinary deoxypyridinoline cross link, and serum osteocalcin and bone-specific alkaline phosphatase were measured to assess bone turnover. […]

Phosphorus = assay: VIT-23 study: phosphorus at study visits; format: in vivo, human
Protocol: Subjects with a hemoglobin (Hgb) that meets inclusion requirements and no exclusionary criteria will be offered participation in this 5-6 week study.
During the Treatment Phase, all subjects received a maximum dose of 1000 mg of IV iron. […] If no reaction occurred, the remainder of the dose (up to 15 mg/kg or 1000 mg including the test dose) was given as per Investigator. The infusion was given only when resuscitative techniques for the treatment of anaphylactic and anaphylactoid reactions were readily available.
Primary Endpoints included changes in blood and urine markers of phosphate and bone metabolism following IV iron administration. Blood markers include (all performed in morning after 10 hr fast): Serum Phosphate; Serum Potassium; Plasma Fibroblast growth factor 23 via 2nd generation Immutopics C-terminal assay; Serum Vitamin D; 1, 25 dihydroxy Vitamin D (1,25 [OH]2D); 25 hydroxy Vitamin D (250H-D); Serum Osteocalcin; Serum Bone-specific Alkaline phosphatase; Plasma intact Parathyroid hormone; Serum creatinine; Hepcidin; Reticulocyte count; Hemoglobin; Ferritin; Transferrin Saturation (TSAT); and Sample for archive. Urine markers (collected over a 3 hour period in the morning) (ratio of phosphate to creatinine determined to offset inter-patient variability in urine concentration) include: Phosphate; Creatinine; Calcium; Amino acids; Glucose; Albumin; Deoxypyridinoline cross link (Dpd)—a collagen type I cross link that indicates bone resorption; Beta-2-microglobulin; and Sample for archive.
All subjects had laboratory assessments at Screening, Day 0, Day 1 (24 hrs), Day 7, Day 14, and Day 35. Any subject with a change in phosphate value after Day 0 had additional phosphate measurements at 14 day intervals (following Day 35) until the level returned to normal (as defined by the laboratory reference range). Safety evaluation for all subjects included adverse events, physical examination, including vital signs, and laboratory assessments. Three hour urine collections was also performed on Day 0, Day 1 (24 hrs), Day 7, Day 14, and Day 35. Any subject who withdrew from the study will receive a follow up phone call 30 days after they received study drug.
The “baseline” was the value at Day 0 prior to administration of any study drug. The value of “n” for the baseline measurement may have be different at each study visit because the baseline values were assessed only for those individuals with data at the given visit.

[2] = Day 7 after single IV dose up to 1000 mg iron
[3] = Day 14 after single IV dose up to 1000 mg iron
[4] = Day 35 after single IV dose up to 1000 mg iron

Substance: iron dextran [reference compound]
- Mean increase in hepcidin from baseline to highest value [1]: 77.8 ng/mL
- effect of a single dose on hemoglobin and iron indices [1]: significantly increase
- proportion of group in which hemoglobin increased by 2.0 g/dL [1]: 53%
- Hemoglobin increase ≧2.0 g/dL, n (%) [1]: 16 (53) n (%)
- Mean increase in ferritin from baseline to highest value [1]: 189 ± 21
- Mean increase in hemoglobin from baseline to highest value [1]: 2.2 ± 0.2 g/dL
- Mean increase in transferrin saturation from baseline to highest value [1]: 44 ± 3.0%
- effect on TSAT and serum hepcidin levels [1]: increased TSAT and serum hepcidin levels significantly
- serum hepcidin levels by day 7 [1]: significantly increased
- Phosphorus, Visit, Mean (Phosphorus; [2]): 3.55 mg/dL
- Phosphorus, Change to Visit, Max (Phosphorus; Day 7 vs baseline): 1.2 mg/dL
- Phosphorus, Change to Visit, Mean (Phosphorus; Day 7 vs baseline): -0.07 mg/dL
- Phosphorus, Change to Visit, Median (Phosphorus; Day 7 vs baseline): -0.1 mg/dL
- Phosphorus, Change to Visit, Min (Phosphorus; Day 7 vs baseline): -0.9 mg/dL
- Phosphorus, Visit, Mean (Phosphorus; [3]): 3.58 mg/dL
- Phosphorus, Change to Visit, Max (Phosphorus; Day 14 vs baseline): 1.4 mg/dL
- Phosphorus, Change to Visit, Mean (Phosphorus; Day 14 vs baseline): -0.06 mg/dL
- Phosphorus, Change to Visit, Median (Phosphorus; Day 14 vs baseline): 0.1 mg/dL
- Phosphorus, Change to Visit, Min (Phosphorus; Day 14 vs baseline): -1.5 mg/dL
- Phosphorus, Visit, Mean (Phosphorus; [4]): 3.55 mg/dL
- Phosphorus, Change to Visit, Max (Phosphorus; Day 35 vs baseline): 1.3 mg/dL
- Phosphorus, Change to Visit, Mean (Phosphorus; Day 35 vs baseline): -0.08 mg/dL
- Phosphorus, Change to Visit, Median (Phosphorus; Day 35 vs baseline): -0.1 mg/dL
- Phosphorus, Change to Visit, Min (Phosphorus; Day 35 vs baseline): -1.3 mg/dL

Substance: polynuclear iron (III)-hydroxide 4(R)-(poly-(1→4)-O-α-glucopyranosyl)-oxy-2(R),3(S),5(R),6-tetrahydroxy-hexanoate [FCM]
- absolute difference in proportion with hemoglobin increase, FCM vs iron dextran ([1]; 95% CI −23.2, 36.6%, p=0.79): 6.7%
- Mean increase in hepcidin from baseline to highest value [1]: 33.4 ng/mL
- effect of a single dose on hemoglobin and iron indices [1]: significantly increase
- proportion of group in which hemoglobin increased by 2.0 g/dL [1]: 60%
- Hemoglobin increase ≧2.0 g/dL, n (%) [1]: 15 (60) n (%)
- Mean increase in ferritin from baseline to highest value [1]: 306 ± 41
- Mean increase in hemoglobin from baseline to highest value [1]: 2.0 ± 0.3 g/dL
- Mean increase in transferrin saturation from baseline to highest value [1]: 68 ± 6.4%
- effect on TSAT and serum hepcidin levels [1]: increased TSAT and serum hepcidin levels significantly
- serum hepcidin levels by day 7 [1]: significantly increased
- increase in serum ferritin by day 7 compared to iron dextran ([1]; thereafter levels similar): greater increase
- Phosphorus, Visit, Mean (Phosphorus; [2]): 2.51 mg/dL
- Phosphorus, Change to Visit, Max (Phosphorus; Day 7 vs baseline): 0.7 mg/dL
- Phosphorus, Change to Visit, Mean (Phosphorus; Day 7 vs baseline): -0.87 mg/dL
- Phosphorus, Change to Visit, Median (Phosphorus; Day 7 vs baseline): -0.8 mg/dL
- Phosphorus, Change to Visit, Min (Phosphorus; Day 7 vs baseline): -2.3 mg/dL
- Phosphorus, Visit, Mean (Phosphorus; [3]): 3.42 mg/dL
- Phosphorus, Change to Visit, Max (Phosphorus; Day 14 vs baseline): 0.7 mg/dL
- Phosphorus, Change to Visit, Mean (Phosphorus; Day 14 vs baseline): -0.92 mg/dL
- Phosphorus, Change to Visit, Median (Phosphorus; Day 14 vs baseline): -0.7 mg/dL
- Phosphorus, Change to Visit, Min (Phosphorus; Day 14 vs baseline): -3.5 mg/dL
- Phosphorus, Visit, Mean (Phosphorus; [4]): 3.92 mg/dL
- Phosphorus, Change to Visit, Max (Phosphorus; Day 35 vs baseline): 1.0 mg/dL
- Phosphorus, Change to Visit, Mean (Phosphorus; Day 35 vs baseline): -0.38 mg/dL
- Phosphorus, Change to Visit, Median (Phosphorus; Day 35 vs baseline): -0.2 mg/dL
- Phosphorus, Change to Visit, Min (Phosphorus; Day 35 vs baseline): -1.9 mg/dL

From patent US20140162974A1, “METHODS FOR MODULATION OF PHOSPHORUS AND FGF23” (Luitpold Pharmaceuticals, Inc., priority 2012, published 2014)
